The test system of one experiment is CD14 mRNA. The experiment can be described thus: CD14 mRNA expression by real-time quantitative TaqMan PCR in THP-1 or HepG2 cells. It counts as cell-based, human. The protocol: (§1) FIGS. 5a and 5b are graphs showing that activation of LXR increases mRNA expression of ABCA1 and CD14. THP-1 or HepG2 cells (5×10^5 cells/well) were plated in 6-well plates, and mixed with buffer (open bar) or 22(R)—OH cholesterol (10 μM, closed bar). After overnight incubation (˜16 hr) at 37° C., RNA samples were prepared from the cultured cells, and mRNAs for ABCA1 (a) and CD14 (b) were measured as described in Example 4, below. Results are presented as fold of control (untreated cells), and data are shown as the means±range of duplicate determinations.
(§2) Recent studies indicate that cholesterol efflux from cells is regulated by the transcription factor, LXR, which binds regulatory oxysterols and enhances expression of ABCA1 (see Costet, P., Luo, Y., Wang, N., and Tall, A. R. (2000) J. Biol. Chem. 275, 28240-28245; and Schwartz, K., Lawn, R. M., and Wade, D. P. (2000) Biochem. Biophys. Res. Commun. 274, 794-802.). If CD14 shared with ABCA1 a role in cholesterol efflux from cells, the expression of CD14 might be regulated in parallel with ABCA1 to help achieve cholesterol homeostasis. To test this, cells were incubated with 22(R)-hydroxycholesterol (22R—OH cholesterol), a specific ligand for LXR, and expression of ABCA1 and CD14 mRNA was measured by real time PCR. […] The dose dependence for induction of ABCA1 and CD14 was roughly similar with half-maximal induction observed at ˜10 μM (not shown). Induction of ABCA1 appeared slightly more rapid than that of CD14, but both reached a plateau level by 16 hr. The magnitude of the response of CD14 to 22R—OH cholesterol was less than that observed for ABCA1, but the increase was consistently seen with either of these two cell types. […]
(§3) Real-time quantitative TaqMan PCR analysis (Heid, C. A., Stevens, J., Livak, K. J., and Williams, P. M. (1996) Genome Res. 6, 986-994) was used to determine the relative levels of CD14 and ABCA1 mRNA. […] Sequence-specific amplification was detected with an increased fluorescent signal of FAM (reporter dye) during the amplification cycle. […]
Background: Real-time PCR tracks product formation cycle by cycle.

The next experiment deals with ABCA1 mRNA. The experiment can be described thus: ABCA1 mRNA expression by real-time quantitative TaqMan PCR in THP-1 or HepG2 cells. In kind it is cell-based, human. The protocol:
as §1, §2, §3

Experiment [1] deals with THP-1 cells. The experiment can be described thus: sCD14 acceleration of cholesterol efflux from [3H]cholesterol-labeled THP-1 cells to apo A-I, HDL3 or HDL. It counts as cell-based. The settings on record: sCD14 5 μg/ml alone or apo A-I 100 μg/ml alone. The procedure:
FIG. 2 is a graph showing the kinetics of cholesterol efflux by sCD14 and/or apo A-I. [^3H]cholesterol-labeled THP-1 cells were incubated with or without 5 μg/ml of sCD14 and/or 100 μg/ml of apo A-I in RPMI. Background efflux without proteins at each time was measured and subtracted from other data point. Closed circles, sCD14; open circles, apo A-I; inverted triangles, sCD14 and apo A-L. Data represents the mean of three measurements±SD. The data were repeated with similar results.
FIG. 3 is a graph showing the dose dependent additive effect of sCD14 for cholesterol efflux to apo A-I but not to HDL. [^3 H]cholesterol-labeled TBP-1 cells were incubated in buffer containing 50 μg/ml of apo A-I, HDL3 or HDL with or without the indicated concentration of sCD14 for 1 h. Open bar, without sCD14; hatched bar, 10 μg/ml sCD14; black bar, 25 μg/ml sCD14. Background efflux without proteins at each time was measured and subtracted from other data point. Asterisks show statistical significance compared to the data without sCD14: *, p<0.01; **, p<0.001. Data are representative of three independent experiments with similar results.
The following experiment was performed to determine if sCD14 could facilitate the efflux of cholesterol to its major acceptor, apo A-I (FIG. 2). […]

In experiment [2] the test system is THP-1 cells. Briefly: cholesterol efflux from [3H]cholesterol-labeled THP-1 cells mediated by sCD14 or apo A-I. In kind it is cell-based. The protocol:
FIGS. 1a, 1b and 1c are graphs showing the effect of sCD14 concentration on cholesterol efflux. [^3H]cholesterol-labeled THP-1 cells were incubated with the indicated concentration of sCD14 (closed circles), apo A-I (open circles) or HSA (inverted triangles) in RPMI for 30 min (a and b) or for 20 h (c). Each point represents the mean of three measurements±SD (a) or the average of duplicate samples±range (b and c). Data are representative of five independent experiments with similar results.
[^3H]cholesterol-labeled THP-1 cells were incubated with increasing concentrations of sCD14, apo A-I or the control protein, HSA, and radioactivity in the supernatant was determined. The initial rate of cholesterol efflux was explored in studies of short duration (30 min, FIG. 1a and with extended dose response in FIG. 1b). […] Because of the linear dose-dependence of sCD14-mediated efflux and because no other cholesterol acceptor was present in the incubation, these observations appear most consistent with a direct, low affinity binding of cholesterol to sCD14.
The maximal extent of cholesterol efflux mediated by apo A-I and sCD14 was explored in parallel experiments of 24 hr duration (FIG. 1c). […] However, because of the limiting concentrations of sCD14 in plasma (3-5 μg/ml) and the far greater concentration of apo A-I (˜1 mg/ml), sCD14 per se is unlikely to be a significant reservoir or destination for the cholesterol in plasma.

Where [3] appears, read: THP-1 monocytes or HepG2, 10 μM, overnight (~16 hr).

For the compound `CC(C)CC[C@@H](O)[C@@H](C)[C@H]1CC[C@H]2[C@@H]3CC=C4C[C@@H](O)CC[C@]4(C)[C@H]3CC[C@]12C` [22(R)-hydroxycholesterol], the “time to plateau level of CD14 induction” value with CD14 mRNA was not above 16 h. In addition, the EC50 in the experiment on CD14 mRNA (Homo sapiens, dose dependence (not shown), read-out: half-maximal induction of CD14) was approximately 10 µM; in the experiment on ABCA1 mRNA (Homo sapiens, dose dependence (not shown), read-out: half-maximal induction of ABCA1) it was approximately 10 µM. Besides, in the experiment with CD14 mRNA (setting [3]), the “CD14 mRNA expression” value is on record as “consistent rise”. Moreover, the “time to plateau level of ABCA1 induction” value with ABCA1 mRNA was not above 16 h. For the same compound, in the experiment on ABCA1 mRNA (setting [3]), the “ABCA1 mRNA expression” value is reported as “consistent rise”.

For the compound “apo A-I: apolipoprotein A-I, major acceptor of cellular cholesterol”, the “cholesterol efflux by protein alone, kinetic analysis” value with THP-1 cells [1] is reported as “larger efflux”. Further, the “concentration at which cholesterol efflux is saturable” value in the experiment with THP-1 cells [2] (30 min assays, THP-1 cells, no other cholesterol acceptor) was 10 to 20 µg/mL. In the experiment on THP-1 cells [2] (24 hr duration, THP-1 cells), the “concentration leading to near maximal cholesterol efflux” value was found to be 10 µg/mL. In addition, the “capacity to mediate cholesterol efflux relative to CD14” value in the experiment on THP-1 cells [2] (24 hr duration, comparison of dose-dependence curves) is reported as 10-20 fold.

The values are drawn from US20040071633A1, “Method for determining efficacy of reverse cholesterol transport enhancing agents” (priority 2003, published 2004).
